From US9662338B2, “Formulations of viloxazine” (Supernus Pharmaceuticals, Inc., priority 2012, dated 2017)

Details: steady state plasma levels at both 150 mg and 300 mg total daily dose; IR capsules TID
Method: A randomized, double blind, multicenter, placebo controlled clinical study was conducted to evaluate the efficacy of viloxazine in adults with ADHD. […] Subjects not tolerating the 300 mg/day dose were allowed at any time of the treatment phase to down titrate to 1 capsule TID for a total daily dose of 150 mg viloxazine base. […] Plasma samples were obtained up to six hours following dosing.

For CCOc1ccccc1OCC1CNCCO1 (racemic) [viloxazine, (RS)-2-[(2-ethoxyphenoxy)methyl]morpholine], the “clinical efficacy in adults with ADHD” value was “demonstrated clinical efficacy”.
